System: GBM cells (DBTRG-05MG)
Assay: Apoptosis of GBM cells by TUNEL
Type: cell-based, human
Method: Apoptotic cell death was analyzed using In Situ Cell Death Detection Kit, POD (Roche, Germany). Changes in DNA chromatin morphologic features were used for quantification. The procedures were performed in accordance with the manufacturer's instructions. […] In AS-C and BP-treated groups, the suspended cells were collected. In the control group, adherent and floating cells were collected. Then, the cells were fixed with 3.7% formaldehyde at room temperature for 15 min. on saline coated slides, washed once in 1×PBS, and incubated in cold permeabilization solution (0.1% Triton X-100+0.1% sodium citrate) after reducing activity of endogenous peroxidase with 3% H2O2. The cells were washed with 1×PBS again, and incubated with terminal deoxynucleiotidyl transferase (TdT)-mediated dUTP nicks labeling (TUNEL) reaction mixture for 60 minutes at 37° C. Then, the cells were washed with 1×PBS, counterstained with propidium iodide (PI) for cell counting. For quantification of apoptosis, the results were viewed under fluorescence microscopy (Nikon, Kawasaki, Japan).
The apoptotic cells with AS-C treatment were detected by fluorescence microscopy (400×), with In Situ TUNEL staining and propidium iodide cell counterstaining, and observed under light field. Likewise, BP induced apoptosis in GBM cells was assessed by TUNEL method and using propidium iodide as a counter stain. […]

Q: What does the source list for CCCC=C1OC(=O)c2ccccc21 [BP, n-Butylidenephthalide]?
A: apoptosis rates of GBM cells compared to untreated cells (TUNEL) (BP 5 to 800 μM, 48 hours): much higher; detached GBM cells having undergone apoptosis (TUNEL) (BP 5˜800 μg/ml as printed, 72 hours): almost all

Reference: patent US7455861B2, “Angelicae sinensis extracts useful for treatment of cancers” (priority 2004, dated 2008)
